Drawing on patent publication US4444771A, “Azeto triazolo pyrazine β-lactam antibacterial agents” (Beecham Group Limited, priority 1980, dated 1984), this text covers MIC for 8 compounds.

What all share (assay type): cell-based
One assay deals with S. pyogenes. Briefly: Antibacterial activity, minimum inhibitory concentration, S. pyogenes. The following applies: Streptococcus pyogenes, serial dilution, DST agar + 10% horse blood, 10^-2 dilution inoculum, 37°, 18 h. The method, then: (§1) Minimum Inhibitory Concentration μg/ml^a
(§2) ^a Determined by serial dilution on DST agar containing 10% horse
(§3) blood using an inoculum of 0.001 ml of a 10^-2 dilution for
(§4) Grampositive bacteria or a 10^-4 dilution for Gramnegative organisms.
(§5) MIC values were read after incubation at 37° for eighteen hours.

A further assay concerns E. coli. Briefly: Antibacterial activity, minimum inhibitory concentration, E. coli. Particulars: Escherichia coli, serial dilution, DST agar + 10% horse blood, 10^-4 dilution inoculum, 37°, 18 h. The method, then: as §1, §2, §3, §4, §5
The next assay deals with S. aureus Russell. Briefly: Antibacterial activity, minimum inhibitory concentration, S. aureus Russell. The following applies: Staphylococcus aureus; S. aureus Russell (lactamase-producing benzylpenicillin-resistant strain); serial dilution, DST agar + 10% horse blood, 10^-2 dilution inoculum, 37°, 18 h. The protocol:
as §1, §2, §3, §4, §5
^b lactamase-producing benzylpenicillinresistant strain.

A further assay has as its system P. mirabilis. Briefly: Antibacterial activity, minimum inhibitory concentration, P. mirabilis. Particulars: Proteus mirabilis, serial dilution, DST agar + 10% horse blood, 10^-4 dilution inoculum, 37°, 18 h. The method, then:
as §1, §2, §3, §4, §5

In the next assay the test system is S. typhimurium. Briefly: Antibacterial activity, minimum inhibitory concentration, S. typhimurium. The following applies: Salmonella enterica, serial dilution, DST agar + 10% horse blood, 10^-4 dilution inoculum, 37°, 18 h. The method, then: as §1, §2, §3, §4, §5
The next assay relates to S. faecalis. Briefly: Antibacterial activity, minimum inhibitory concentration, S. faecalis. Particulars: Enterococcus faecalis, serial dilution, DST agar + 10% horse blood, 10^-2 dilution inoculum, 37°, 18 h. The protocol: as §1, §2, §3, §4, §5
For a further assay, the system named is K. aerogenes. Briefly: Antibacterial activity, minimum inhibitory concentration, K. aerogenes. The following applies: Klebsiella aerogenes, serial dilution, DST agar + 10% horse blood, 10^-4 dilution inoculum, 37°, 18 h. The method, then: as §1, §2, §3, §4, §5
Another assay deals with S. aureus Oxford. Briefly: Antibacterial activity, minimum inhibitory concentration, S. aureus Oxford. Particulars: Staphylococcus aureus, serial dilution, DST agar + 10% horse blood, 10^-2 dilution inoculum, 37°, 18 h. The protocol:
as §1, §2, §3, §4, §5

The subject of another assay is B. subtilis. Briefly: Antibacterial activity, minimum inhibitory concentration, B. subtilis. Particulars: Bacillus subtilis, serial dilution, DST agar + 10% horse blood, 10^-2 dilution inoculum, 37°, 18 h. The protocol: as §1, §2, §3, §4, §5
The next assay has as its system S. pneumoniae. Briefly: Antibacterial activity, minimum inhibitory concentration, S. pneumoniae. Particulars: Streptococcus pneumoniae, serial dilution, DST agar + 10% horse blood, 10^-2 dilution inoculum, 37°, 18 h. The protocol:
as §1, §2, §3, §4, §5

Each structure is given as a SMILES string. Where a name gives a salt, the structure may show the parent alone. Bounds are passed on as bounds.

What is called MIC is the smallest concentration in the dilution series that meets the test's criterion for growth inhibition. As to `CC1=C(C(=O)O)N2C(=O)[C@H](NC(=O)COc3ccccc3)[C@@H]2c2cnnn21` (relative stereo) [Compound 15, (4bRS,5RS) 5,6-Dihydro-9-methyl-6-oxo-5-phenoxyacetamido-4bH-azeto-[2,1-c]v-triazolo-[1,5-a]-pyrazine-8-carboxylic acid], the MIC was 5 µg/mL in the assay on S. pyogenes; > 100 µg/mL in the assay on E. coli; 100 µg/mL in the assay with S. aureus Russell; > 100 µg/mL in the assay on P. mirabilis; > 100 µg/mL with S. typhimurium; > 100 µg/mL with S. faecalis. Further, the minimal inhibitory concentration (MIC) is > 100 µg/mL with K. aerogenes, 25 µg/mL in the assay with S. aureus Oxford, 5 µg/mL with B. subtilis and 2.5 µg/mL in the assay on S. pneumoniae.
With `CC1=C(C(=O)O)N2C(=O)[C@H](NC(=O)C(C(=O)Oc3ccccc3)c3ccccc3)[C@@H]2c2cnnn21` (relative stereo) [Compound 22, (4bRS,5RS) 5,6-Dihydro-9-methyl-6-oxo-5-[DL-α-phenoxycarbonylphenylacetamido]-4bH-azeto[2.1-c]-v-triazolo[1.5-a]-pyrazine-8-carboxylic acid], the MIC in the assay with E. coli is 100 µg/mL; in the assay with S. aureus Russell it was > 100 µg/mL; in the assay with P. mirabilis, 100 µg/mL; in the assay with S. typhimurium, 50 µg/mL; in the assay on S. faecalis, > 100 µg/mL; in the assay with K. aerogenes, > 100 µg/mL. The minimum inhibitory concentration (MIC) with S. aureus Oxford was > 100 µg/mL; in the assay on B. subtilis, 100 µg/mL.
Regarding `CC(=O)N[C@H]1C(=O)N2C(C(=O)O)=C(C)n3nncc3[C@@H]12` (relative stereo) [Compound 35, (4bRS,5RS) 5-Acetamido-5,6-dihydro-9-methyl-6-oxo-4bH-azeto-[2,1-c]-v-triazolo-pyrazine-8-carboxylic acid], the MIC with S. pyogenes was 2.5 µg/mL; in the assay with E. coli, > 100 µg/mL; in the assay on S. aureus Russell, > 100 µg/mL; with P. mirabilis, > 100 µg/mL; in the assay with S. typhimurium, 100 µg/mL; in the assay on S. faecalis it was > 100 µg/mL. For the same compound, the minimal inhibitory concentration (MIC) with K. aerogenes is > 100 µg/mL; with S. aureus Oxford, 100 µg/mL; with B. subtilis it was 5 µg/mL; with S. pneumoniae it was 5 µg/mL.
With `CC1=C(C(=O)O)N2C(=O)[C@H](NC(=O)Cc3cccs3)[C@@H]2c2cnnn21` (relative stereo) [Compound 55, (4bRS,5RS) 5,6-Dihydro-9-methyl-6-oxo-5-(2-thienylacetamido)-4bH-azeto-[2,1-c]-v-triazolo-[1,5-a]-pyrazine-8-carboxylic acid, p-toluidine salt)], the MIC came out at 0.2 µg/mL in the assay on S. pyogenes; 100 µg/mL in the assay with S. aureus Russell; 10 µg/mL in the assay on P. mirabilis; 25 µg/mL in the assay on S. faecalis; 100 µg/mL in the assay on K. aerogenes; 10 µg/mL in the assay on S. aureus Oxford. The MIC came out at 0.5 µg/mL with B. subtilis and 2.5 µg/mL with S. pneumoniae.
`CC1=C(C(=O)O)N2C(=O)C(NC(=O)[C@H](N)c3ccccc3)C2c2cnnn21` (stereo partly drawn) [Compound 28, (4bRS,5RS)-5,6-Dihydro-9-methyl-6-oxo-5-D-α-phenylglycylamino-4bH-azeto-[2,1-c]-v-triazolo[1,5-a]pyrazine-8-carboxylic acid, p-toluidine salt]: the minimal inhibitory concentration (MIC) was 2.5 µg/mL in the assay on S. pyogenes; > 100 µg/mL in the assay with E. coli; > 100 µg/mL in the assay on S. aureus Russell; > 100 µg/mL in the assay on P. mirabilis; > 100 µg/mL with S. typhimurium; > 100 µg/mL in the assay with S. faecalis. The MIC in the assay with K. aerogenes is > 100 µg/mL; with S. aureus Oxford it was 100 µg/mL; with B. subtilis, 10 µg/mL; in the assay with S. pneumoniae it was 10 µg/mL.
On to `CC1=C(C(=O)O)N2C(=O)[C@H](NC(=O)[C@H](O)c3ccccc3)[C@@H]2c2cnnn21` [Compound 39, (4bR,5R) 5,6-Dihydro-5-D-α-hydroxyphenylacetamido-9-methyl-6-oxo-4bH-azeto-[2,1-c]-v-triazolo-[1,5-a]-pyrazine-8-carboxylic acid], for which the minimal inhibitory concentration (MIC) with S. pyogenes, in the assay with E. coli, in the assay on S. aureus Russell, in the assay on P. mirabilis, in the assay on S. typhimurium and in the assay on S. faecalis was > 100 µg/mL each time. For the same compound, the MIC is > 100 µg/mL with K. aerogenes, > 100 µg/mL in the assay with S. aureus Oxford, 100 µg/mL in the assay on B. subtilis and > 100 µg/mL in the assay with S. pneumoniae.
On to `CC1=C(C(=O)O)N2C(=O)[C@@H](NC(=O)[C@H](O)c3ccccc3)[C@H]2c2cnnn21` [Compound 40, (4bS,5S)-5,6-Dihydro-5-D-α-hydroxyphenylacetamido-9-methyl-6-oxo-4bH-azeto-[2,1-c]-v-triazolo-[1,5-a]-pyrazine-8-carboxylic acid], for which the minimal inhibitory concentration (MIC) with S. pyogenes is 50 µg/mL; with E. coli, > 100 µg/mL; in the assay with S. aureus Russell, 100 µg/mL; with P. mirabilis, 10 µg/mL; with S. typhimurium it was 25 µg/mL; with S. faecalis, 100 µg/mL. Also, the MIC was 100 µg/mL in the assay on K. aerogenes, 25 µg/mL with S. aureus Oxford, 0.5 µg/mL in the assay on B. subtilis and ≤ 0.2 µg/mL in the assay with S. pneumoniae.
Turning to `CC1=C(C(=O)O)N2C(=O)[C@@H](NC(=O)COc3ccccc3)[C@H]2c2cnnn21` [Compound 42, (4bS,5S)-5,6-Dihydro-9-methyl-6-oxo-5-phenoxyacetamido-4bH-azeto-[2,1-c]-v-triazolo-[1,5-a]-pyrazine-8-carboxylic acid], the minimal inhibitory concentration (MIC) in the assay with S. pyogenes was 2.5 µg/mL; in the assay with E. coli, > 50 µg/mL; with S. aureus Russell, > 50 µg/mL; in the assay on P. mirabilis, > 50 µg/mL; in the assay with S. typhimurium it was > 50 µg/mL; with S. faecalis, 50 µg/mL. Further, the MIC with K. aerogenes was > 50 µg/mL; with B. subtilis, 0.5 µg/mL; in the assay on S. pneumoniae, 5 µg/mL.
